Reference: US20160220709A1, “PHOTOACOUSTIC IMAGING CONTRAST AGENT COMPOSITION” (Agency for Science, Technology and Research, priority 2013, published 2016)

What was measured:
[1] = In vitro photoacoustic (PA) signal measurement in polyethylene tubing, PA microscopy at 410 nm
Source text: The microscopy system consists of laser pulse generation and delivery, PA signal reception, and image reconstruction and display. Laser pulses, 4 ns wide, were generated at a frequency of 10 Hz by using an optical parametric oscillator (Surlite OPO Plus, Continuum, USA). The laser was pumped by a frequency-tripled Nd:YAG Q-switched laser (Surlite II-10, Continuum, USA). The incident wavelength was set at 410 nm. The custom-made 50-MHz ultrasonic transducer (Acoustic Sensor, Taiwan) has a −6 dB fractional bandwidth of 57.5%, focal length of 9 mm, and a 6 mm active element, offering an axial resolution of 32 μm and a lateral resolution of 61 μm.
Laser energy was delivered using a 1-mm multimodal fiber. The fiber tip was coaxially aligned with a convex lens, an axicon, a plexiglass mirror, and an ultrasonic transducer on an optical bench, forming dark-field illumination that was confocal with the focal point of the ultrasonic transducer. The incident energy density on the sample surface was well within American National Standards Institute (ANSI) safety limits. The transducer was immersed in an acrylic water tank during the imaging process, and the hole at the bottom of the tank was sealed with a piece of […] thick polyethylene film. A thin layer of ultrasonic gel was applied as a PA conductive medium, which was then attached to the thin polyethylene film to ensure reliable coupling of the PA waves with the water tank. The PA signals received by the ultrasonic transducer were pre-amplified by a low-noise amplifier (noise FIG. 1.2 dB, gain 55 dB, AU-3A-0110, USA), cascaded to an ultrasonic receiver (5073 PR, Olympus, USA) and then digitized and sampled by a computer-based 14-bit analog to digital (A/D) card (CompuScope 14220, GaGe, USA) at a 200-MHz sampling rate for data storage.
Fluctuations in the laser energy were monitored with a photodiode (DET36A/M, Thorlabs, USA). The recorded photodiode signals were measured prior to the experiment to compensate for PA signal variations caused by laser-energy instability. The achievable penetration depth of the current PA microscopy system was 3 mm with approximately 18-dB SNR, where SNR is defined as the ratio of the signal peak value to the root-mean-square value of the noise. Three scan types can be provided by this system: A-line (i.e., one-dimensional images where the axis represents the imaging depth), B-scan (i.e., two-dimensional images where one axis is the lateral scanning distance and the other is the imaging depth), and C-scan (i.e., projection images from the three-dimensional images). The amplitude of the envelope-detected PA signals was used in the subsequent functional imaging analysis.
For both in vivo and in vitro imaging, the laser was pulsed with a pulse repetition rate of 10 Hz and coupled by a lens to an optical fiber to illuminate the ROI. A window at the bottom of the water container was sealed with an optically and ultrasonically transparent, disposable polyethylene film. After a commercially available ultrasound gel was applied to the brain for acoustic coupling, the brain was placed between the water container and the custom-made stereotaxic apparatus for imaging.
All the PA images in this study were acquired at 410 nm without any need for signal averaging, and yet the contrast quality of the PA images is high. […]

Water solubility = type: physicochemical
[2] = tested on: oral squamous cell carcinoma (OSCC) cells; test: Cell viability study (MTS / CCK8 cytotoxicity assay); type: cell-based; conditions: 0.01-30 μM, 24 h incubation
Experimental: Five thousand oral squamous cell carcinoma (OSCC) cells were seeded in a 96-well plate for 24 h before a solution of 2 in DMEM ([…]) with the indicated concentrations (0.01-30 μM) was introduced into each well. After incubation for 24 h, 10 μL of CCK8 (cell counting kit-8, Sigma-Aldrich) was added to each well. Cell absorbance was measured with a SpectraMax 384 Plus spectral analyser after 4 h, with 450 nm excitation.

[3] = In vivo PA imaging of rat cortical vasculature (superior sagittal sinus); conditions: 200 μL of 30 μM, retro-orbital injection, 20 min after administration, 410 nm
Source text: Cortical vasculature of the rat was in vivo imaged at 32×61 μm resolution, with a designed 50-MHz dark-field confocal PA microscopy system (FIG. 4); the PA signal at λ410 was acquired. The SSS is the largest vein in the rodent brain cortex, and a selected section of it is the region-of-interest (ROI) in this study (FIG. 5B). There is strong clinical evidence that controlling cerebral venous blood flow is critically important for patients with severe traumatic brain injury as well as for patients undergoing cardiac surgery. Then, the SSS is a large central cerebral vein at cortical layer, and collects blood flow from both hemispheres before emptying into the internal jugular vein. That is, accurate measurements of blood flow changes in the SSS are thus very important.
Six male Wistar rats (NUS-CARE, Singapore), weighing 250-300 grams, were used. Animal experiments were conducted in accordance with guidelines from Institutional Animal Care and Use Committee (IACUC) at the National University of Singapore. The rats were fasted for 24 h prior to the imaging experiments, but were given water ad libitum. They were anesthetized with isoflurane (2 to 3% in 100% O2), mounted in a dorsal position over a custom-made acrylic stereotaxic holder, and the skin and muscle on the skull were removed to expose the bregma landmark. […]

Molecule | concentration down to which PA signal of aqueous solution is adequate ([1]; aqueous solution, B-scan) | water solubility (Water solubility) | effect on viability of cells (cytotoxicity) [2] | clarity of brain vasculature in PA B-scan image compared to intrinsic optical contrast [3] | PA signal relative to that for single-walled carbon nanotubes (SWNT) [1] | PA signal relative to that for 1a ([1]; water/ethanol (60:40, v/v)) | PA signal relative to that for 1b ([1]; water/ethanol (60:40, v/v)) | PA signal, rank among the three carbonyl clusters ([1]; water/ethanol (60:40, v/v))
Os3(CO)10(μ-H)μ-S(CH2)2COO^−Na^+ [compound 2] | 2.5 µM | water-soluble | little effect on the viability of cells | greater clarity |  |  |  | 
[C-]#[O+].[C-]#[O+].[C-]#[O+].[C-]#[O+].[C-]#[O+].[C-]#[O+].[C-]#[O+].[C-]#[O+].[C-]#[O+].[C-]#[O+].[C-]#[O+].[C-]#[O+].[Os].[Os].[Os] [1c, Os3(CO)12] |  | low water solubility |  |  | 2.4 times higher | about 1.5 times higher | ~1.2 times higher | highest PA signal
